Key:
human ovarian carcinoma = settings: in vitro and in vivo; cited from earlier work
SKOV3ip1 cells = assay: Human SKOV3ip1 tumor growth inhibition assay in mice; format: in vivo; settings: mice i.p. SKOV3ip1, after one month of treatment, paclitaxel 5 mg/kg once a week i.p., CF(I) 100 mg/kg once a day oral
Protocol: An aqueous 0.5% (by weight) solution of methylcellulose is prepared by stiffing the appropriate quantity of methylcellulose in the appropriate quantity of water for 4 hours. This solution can be prepared up to 3 days in advance. On the day of the experiment, 0.05% (by volume) of Tween 80 is dissolved in the methylcellulose solution previously obtained to yield the vehicle solution.
(§1) 43 mice are injected i.p. with 10^6 SKOV3ip1 cells. Ten days later, the tumor weight is evaluated in three of the mice. Treatment with a suspension of the compound of formula (I) in the vehicle solution (10 mice), paclitaxel (Mead Johnson, Princeton, N.J., USA) diluted 1:6 in phosphate buffered saline (PBS) for i.p. injections (10 mice), a suspension of the compound of formula (I) in the vehicle solution as well as paclitaxel diluted 1:6 in PBS for further dilution and i.p. injections (10 mice), or the vehicle solution only (10 mice), the vehicle solution being as described above, is administered to the mice using the following doses, frequencies and routes: • paclitaxel: 5 mg/kg (125 μg paclitaxel in 200 μL PBS per mouse), once a week, i.p. route; • compound of formula (I): 100 mg/kg (as suspension in the vehicle solution at a concentration of up to 25 mg/mL), once a day, oral route.
After one month of treatment, the tumor incidence and weight are determined in each of the mice. At the same time, the ascite incidence and volume are also determined.

IGROV cells = assay: Human IGROV tumor growth inhibition assay in mice; format: in vivo; settings: female nude mice i.p. IGROV; after 4 weeks of treatment; paclitaxel 5 mg/kg once a week i.p.; CF(I) 50 mg/kg once a day oral
Protocol: (§2) The vehicle solution is the same as that described for the “Human SKOV3ip1 tumor growth inhibition assay in mice” (see above).
as §1, with “43 female nude” for “43”, “IGROV cells into the peritoneal cavity.” for “SKOV3ip1 cells.”, “paclitaxel” for “paclitaxel (Mead Johnson, Princeton, N.J., USA)”, “for” for “for further dilution and”, “50” for “100”
After 4 weeks of treatment, the tumor incidence and weight are determined in each of the mice.

HeyA8-MDR cells = assay: Multi-drug resistant human ovarian HeyA8-MDR tumor growth inhibition assay in mice; format: in vivo; settings: female nude mice i.p. HeyA8-MDR; after 4 weeks of treatment; paclitaxel 5 mg/kg once a week i.p.; CF(I) 50 mg/kg once a day oral
Protocol: as §2
43 female nude mice are injected i.p. with 10^6 HeyA8-MDR cells into the peritoneal cavity. Ten days later, the tumor weight is evaluated in three of the mice. Mice groups and treatments (doses, frequencies and routes) for the mice groups are the same as those described in the experimental procedure for the “Human IGROV tumor growth inhibition assay in mice” (see above). After 4 weeks of treatment, the tumor incidence and weight are determined in each of the mice.

ovarian cancer = settings: combined with paclitaxel; cited from earlier work
ovarian tumor cells = settings: in vitro; cited from earlier work

SMILES	Ascite incidence (SKOV3ip1 cells)	Ascites (mL) Median (range) (SKOV3ip1 cells)	Body weight (g) Mean ± S.D. (SKOV3ip1 cells)	Tumor incidence (SKOV3ip1 cells)	Tumor weight (g) Median (range) (SKOV3ip1 cells)	Body weight (g) Mean ± S.D. (IGROV cells)	Tumor incidence (IGROV cells)	Tumor weight (g) Median (range) (IGROV cells)	Body weight (g) Mean ± S.D. (HeyA8-MDR cells)	Tumor incidence (HeyA8-MDR cells)	Tumor weight (g) Median (range) (HeyA8-MDR cells)	also measured
COc1nc(C)cnc1NS(=O)(=O)c1cccnc1-c1ccc(-c2nnco2)cc1 [ZD4054]	–	–	–	–	–	–	–	–	–	–	–	Effect on tumor growth and paclitaxel activity (human ovarian carcinoma): inhibits tumor growth and enhances paclitaxel activity
CC(=O)O[C@H]1C(=O)[C@@]2(C)[C@H]([C@H](OC(=O)c3ccccc3)[C@]3(O)C[C@H](OC(=O)[C@H](O)[C@@H](NC(=O)c4ccccc4)c4ccccc4)C(C)=C1C3(C)C)[C@]1(OC(C)=O)CO[C@@H]1C[C@@H]2O [Paclitaxel]	4/9	0.1 (0-0.2) mL	23.6 ± 1.9 g	9/9	0.4 (0.1-0.5) g	28.5 ± 2.4 g	9/10	0.5 (0-0.9) g	27.7 ± 3.7 g	10/10	1.0 (0.5-2.3) g	Ascite incidence (SKOV3ip1 cells; listed as paclitaxel): 4 out of 9; Tumor incidence (SKOV3ip1 cells; listed as paclitaxel): all mice still had tumors
CCCCN(CCCC)C(=O)CN1C[C@H](c2ccc3c(c2)OCO3)[C@@H](C(=O)O)[C@@H]1c1ccc(OC)cc1 [ABT-627, atrasentan]	–	–	–	–	–	–	–	–	–	–	–	Effect of combination with paclitaxel (ovarian cancer): additive antitumor, apoptotic and antiangiogenic effects
CCCNS(=O)(=O)Nc1ncnc(OCCOc2ncc(Br)cn2)c1-c1ccc(Br)cc1 [CF(I), macitentan]	7/10	0.4 (0-4.7) mL	25.5 ± 2.6 g	7/10	2.3 (0-4.6) g	31.0 ± 4.4 g	10/10	0.7 (0.4-1.3) g	27.0 ± 2.2 g	6/10	0.1 (0-0.3) g	Ascite incidence (SKOV3ip1 cells; listed as compound of formula (I)): 7 out of 10
CCCC[C@@H](NC(=O)[C@@H](Cc1cn(C(=O)OC)c2ccccc12)NC(=O)[C@H](CC(C)(C)C)NC(=O)N1[C@H](C)CCC[C@@H]1C)C(=O)O [BQ 788]	–	–	–	–	–	–	–	–	–	–	–	Inhibition of cell adhesiveness (ovarian tumor cells): ineffective
